Reference: patent publication US20230285498A1, “TREATMENTS FOR CANCERS HAVING KRAS MUTATIONS” (City of Hope, priority 2020, published 2023)
Like-named read-outs stand apart in the source and are kept apart here.

Columns and labels:
[1] = test system: SW1573 cells; assay: Cell cycle analysis (FACS); assay type: cell-based; details: 20 μM, 72 hours
Text: Using commercially available lentiviral particles (Essen Bioscience Inc.), a SW1573 stable cell line was developed to determine the dynamics of the cell cycle in response to the KRAS inhibitors. In the G1 phase, these cells express the red fluorescent protein and in G2, they express the green fluorescent protein, and cells transitioning from G1 to […], express both the proteins giving rise to yellow florescence.
Cell cycle analysis. […] The stable cell line was generated using the puromycin selection media. Yellow cells are indicative of cell cycle transition from G1 to S while non-fluorescent cells are moving from M to G1.

[2] = test system: SW1573 NSCLC cells; assay: Mouse SW1573 xenograft; assay type: in vivo, Athymic nude nu/nu mice; details: sotorasib 10 mg/kg, adagrasib 10 mg/kg, carfilzomib 2 mg/kg; oral gavage twice a week; day 56
Method: Mouse xenograft studies. Athymic nude nu/nu mice were obtained from Charles River, Wilmington, Mass., and were acclimated for a week before beginning the experiment. All animal experiments were carried out in accordance with a protocol approved by the Institutional Animal Care and Use Committee (IACUC #16004). […] All 40 animals were injected with 1×10^6 SW1573 cells suspensions in 100 μl of PBS, subcutaneously into one flank of each mouse. At the same time, animals were randomized into treatment groups. Treatment was started 12 days after the SW1573 NSCLC cells implantation to see palpable tumor growth. Treatments were given to mice via oral gavage twice a week for 8 weeks. Animals were examined daily for signs of tumor growth. Tumors were measured in two dimensions using calipers and body weights were recorded. Photographs of animals were taken at day 1, day 7, day 14, day 21, day 28, day 35, day 42, day 49, and day 56 after treatment. Photographs of tumors were also taken at day 56 after treatment. At the end of the study, the mice were euthanized by CO2 asphyxiation followed by cervical dislocation. The tumor weights were compared between groups using an unpaired Student's t-test. A portion of the tumor was fixed in 10% buffered formaldehyde solution and paraffin-embedded for immuno-staining or was snap-frozen in liquid nitrogen for further molecular analysis such as western blotting.

[3] = test system: H23 sotorasib (20 μM)-resistant cells; assay: Cell proliferation, isogenic sotorasib resistant line; assay type: cell-based; details: ITGB4/β-catenin double knockdown together with sotorasib; 96 hours
Text: Next, it was sought to determine cell proliferation changes with the combination treatment.

[4] = test system: H23; assay: Cell proliferation assay, 2D (IncuCyte live cell imaging); assay type: cell-based
Method: The cells grown in 2D cultures were treated with various concentrations of the drug, and the effect on cell proliferation was determined in real time using the live cell proliferation assay (IncuCyte, Essen Bioscience, Inc.) as described in the methods.
Cell proliferation and apoptosis assay: Cell proliferation assays were performed using cell lines stably transfected with NucLight Red Lentivirus (Essen BioScience) to accurately visualize and count the nucleus of a single cell. Cells were seeded on a 96-well plate and allowed to adhere for 24 h. Test compounds were added at indicated concentrations. Caspase-3/7 Green Apoptosis Reagent (Essen BioScience) was also added as a green fluorescent indicator of caspase3/7-mediated apoptotic activity. To monitor cell proliferation and apoptosis over time, the plate was placed in the IncuCyte S3 Live Cell Imaging System (Essen BioScience) and images were acquired every 2 hours. Data analysis was generated by the IncuCyte software using a red fluorescence mask to accurately count each cell nucleus and a green fluorescence mask to measure apoptosis over time. 3D spheroid assay 3D spheroid experiments were performed using cell lines stably transfected with NucLight Red Lentivirus (Essen BioScience) to visualize red fluorescence as an indicator of cell viability. Cells were seeded on a 96-well ultra-low attachment plate and allowed to form spheroids overnight. Drug treatment was added as indicated along with Cytotox Green Reagent (Essen BioScience), used as a green fluorescence indicator of cell death due to loss of cell membrane integrity. To monitor cell proliferation and apoptosis over time, the plate was placed in the IncuCyte S3 Live Cell Imaging System (Essen BioScience) and images were acquired every 2 hours. Data analysis was generated by the IncuCyte software using a red fluorescence mask to accurately measure intensity and area of red fluorescence, indicating spheroid viability and a green fluorescence mask, indicating cell death. Cell cycle analysis.

[5] = test system: SW1573 cells; assay: Zebrafish larvae SW1573 xenotransplant; assay type: in vivo
Method: The inventors microinjected SW1573 cells into the perivitelline space of 48 hour post-fertilization (hpf) zebrafish larvae.

[6] = test system: ITGB4-overexpressing H23 cells; assay: Cell proliferation, ITGB4-overexpressing cells; assay type: cell-based; details: Homo sapiens, NCI-H23
[7] = test system: SW1573 cells; assay: Protein array of global phosphorylation changes; assay type: cell-based; details: IC50 concentration; 72 hours
Method: The phosphorylation changes were analyzed employing the AVM BioMed protein array platform.

[8] = test system: SW1463; assay: Cell proliferation, colorectal G12C homozygous cell line; assay type: cell-based; details: Homo sapiens, SW1463, read-out: inhibition of proliferation
Text: For this experiment the inventors chose SW837 and SW1463 colorectal cell line. The SW837 cell is heterozygous for the G12C mutation whereas the SW1463 is homozygous for the G12C mutation. A stable cell line expressing mKATE2 for Incucyte live cell imaging and analysis was generated.

C=CC(=O)N1CCN(c2nc(=O)n(-c3c(C)ccnc3C(C)C)c3nc(-c4c(O)cccc4F)c(F)cc23)[C@@H](C)C1 [sotorasib]
G2 population ([1]; from 26%): 11% | G1 population ([1]; from about 39%): 62% | reduction in tumor area [2]: about 52% | sensitization of isogenic resistant line [3]: 70% | cell count ([4]; H23, 1-3 μM, 24 h, start 9,000, control 15,000): 12,000 | IC50 ([4]; Homo sapiens, NCI-H23, 72 h, H23, 72 hours, Example 6): 3 µM | IC50 ([4]; Homo sapiens, NCI-H23, H23, Example 1, FIG. 14C-14D): 3.2 µM | inhibition at 0.3 µM ([4]; Homo sapiens, NCI-H23, H23, 0.3 μM): ~20% | inhibition at 10 µM ([4]; Homo sapiens, NCI-H23, H23, 72 hours, read-out: inhibition of proliferation / cell growth): ~80% | inhibition at 5 µM ([4]; Homo sapiens, NCI-H23, H23 parental cells, 5 μM, FIG. 4B, read-out: inhibition of proliferation): 50% | inhibition at 10 µM ([4]; Homo sapiens, NCI-H23, H23 parental cells, FIG. 4B, read-out: inhibition of proliferation): 70% | most effective dose, drug alone (obliterates SW1573 cells) [5]: 12 µM | toxic dose, drug alone [5]: 18 µM | inhibition at 10 µM [6]: 5% | number of proteins with phosphorylation changes unique to the treatment [7]: 1482 proteins | number of proteins with significant phosphorylation changes [7]: 1764 proteins | inhibition at 10 µM [8]: 40%
